Columns and labels:
[1] = biological target: T1, GLS1 (purified recombinant human GAC) (Homo sapiens, UniProt O94925); experiment: GLS1 enzymatic activity assay (dual-coupled, Amplex UltraRed/resorufin); type: biochemical
T1 sequence (O94925 55-598 isoform O94925-3 limits assumed): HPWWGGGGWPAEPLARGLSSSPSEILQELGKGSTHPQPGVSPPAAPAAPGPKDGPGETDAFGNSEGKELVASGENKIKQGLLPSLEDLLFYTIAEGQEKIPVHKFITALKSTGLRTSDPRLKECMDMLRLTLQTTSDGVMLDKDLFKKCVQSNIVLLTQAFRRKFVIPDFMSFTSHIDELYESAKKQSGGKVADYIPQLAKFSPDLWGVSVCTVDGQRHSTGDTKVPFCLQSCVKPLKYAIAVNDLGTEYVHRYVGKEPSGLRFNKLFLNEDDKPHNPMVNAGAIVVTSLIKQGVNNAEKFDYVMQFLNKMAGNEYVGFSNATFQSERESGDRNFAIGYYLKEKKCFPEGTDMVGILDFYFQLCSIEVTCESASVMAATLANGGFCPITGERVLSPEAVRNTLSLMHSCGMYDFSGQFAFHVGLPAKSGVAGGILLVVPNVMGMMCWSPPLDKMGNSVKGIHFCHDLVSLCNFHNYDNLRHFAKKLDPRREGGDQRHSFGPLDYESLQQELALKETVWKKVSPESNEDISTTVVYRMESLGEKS
Method in brief: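 GAC activity measured by coupling glutamate to glutamate oxidase and HRP, generating resorufin from Amplex UltraRed. Enzyme (2 nM) preincubated with 50 mM potassium phosphate 10 min at room temperature, then inhibitor 10 min; 1 mM glutamine substrate, 1% DMSO. Fluorescence 530/590 nm, kinetic or 20-min endpoint; IC50 from four-parameter logistic fit.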

A549 cells = experiment: A549 proliferation (viability) assay, Cell Titer Fluor, 72 hours; type: cell-based; conditions: Homo sapiens
Method in brief: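 Fluorescence read-out (Cell Titer Fluor, 30 min at 37 °C after reagent) after 72 h compound exposure of A549 cells; EC50 by four-parameter logistic curve fit. Cells: 1000/well, RPMI 1640 + 10% dialyzed FBS, 0.5% DMSO final.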

| SMILES | IC50 [1] | EC50 (A549 cells) |
| --- | --- | --- |
| N#CCC(=O)Nc1ccn(CCC(F)Cn2cc(C(=O)NCc3cccc(OC(F)(F)F)c3)nn2)c(=O)c1 (centres unmarked) [Example 188, 1-{4-[4-(2-cyanoacetamido)-2-oxo-1,2-dihydropyridin-1-yl]-2-fluorobutyl}-N-{[3-(trifluoromethoxy)phenyl]methyl}-1H-1,2,3-triazole-4-carboxamide] | 500 to 5000 nM | > 5000 nM |
| Cn1ccnc1CC(=O)Nc1ccn(CCC(F)Cn2cc(C(=O)NCc3cccc(OC(F)(F)F)c3)nn2)c(=O)c1 (centres unmarked) [Example 189, 1-(2-fluoro-4-{4-[2-(1-methyl-1H-imidazol-2-yl)acetamido]-2-oxo-1,2-dihydropyridin-1-yl}butyl)-N-{[3-(trifluoromethoxy)phenyl]methyl}-1H-1,2,3-triazole-4-carboxamide] | 100 to 500 nM | > 5000 nM |
| O=C(CC1CCCCC1)Nc1ccn(CCCCn2cc(C(=O)NC(CO)c3ccccc3)nn2)c(=O)c1 (centres unmarked) [Example 192, 1-{4-[4-(2-cyclohexylacetamido)-2-oxo-1,2-dihydropyridin-1-yl]butyl}-N-(2-hydroxy-1-phenylethyl)-1H-1,2,3-triazole-4-carboxamide] | 100 to 500 nM | > 5000 nM |
| CC(NC(=O)c1cn(CCCCn2ccc(NC(=O)CC3CCCCC3)cc2=O)nn1)c1cccc(OC(F)(F)F)c1 (centres unmarked) [Example 193, 1-{4-[4-(2-cyclohexylacetamido)-2-oxo-1,2-dihydropyridin-1-yl]butyl}-N-{1-[3-(trifluoromethoxy)phenyl]ethyl}-1H-1,2,3-triazole-4-carboxamide] | 100 to 500 nM | 500 to 5000 nM |
| Cc1ccc(CNC(=O)c2cn(CC(F)CCn3ccc(NC(=O)CC4CCCCO4)cc3=O)nn2)cn1 (centres unmarked) [Example 195, 1-(2-fluoro-4-{4-[2-(oxan-2-yl)acetamido]-2-oxo-1,2-dihydropyridin-1-yl}butyl)-N-[(6-methylpyridin-3-yl)methyl]-1H-1,2,3-triazole-4-carboxamide] | 100 to 500 nM | 500 to 5000 nM |
| Cc1ccc(CNC(=O)c2cn(CC(F)CCn3ccc(NC(=O)CC4CCCO4)cc3=O)nn2)cn1 (centres unmarked) [Example 200, 1-(2-fluoro-4-{2-oxo-4-[2-(oxolan-2-yl)acetamido]-1,2-dihydropyridin-1-yl}butyl)-N-[(6-methylpyridin-3-yl)methyl]-1H-1,2,3-triazole-4-carboxamide] | 100 to 500 nM | 500 to 5000 nM |
| O=C(CC1CCC1)Nc1ccn(CCCCn2cc(C(=O)NCc3cccc(OC(F)(F)F)c3)nn2)c(=O)c1 [Example 201, 1-{4-[4-(2-cyclobutylacetamido)-2-oxo-1,2-dihydropyridin-1-yl]butyl}-N-{[3-(trifluoromethoxy)phenyl]methyl}-1H-1,2,3-triazole-4-carboxamide] | < 100 nM | 100 to 500 nM |
| O=C(Cc1cccs1)Nc1ccn(CCCCn2cc(C(=O)NCc3cccc(OC(F)(F)F)c3)nn2)c(=O)c1 [Example 202, 1-(4-{2-oxo-4-[2-(thiophen-2-yl)acetamido]-1,2-dihydropyridin-1-yl}butyl)-N-{[3-(trifluoromethoxy)phenyl]methyl}-1H-1,2,3-triazole-4-carboxamide] | < 100 nM | 100 to 500 nM |
| O=C(Cc1ccsc1)Nc1ccn(CCCCn2cc(C(=O)NCc3cccc(OC(F)(F)F)c3)nn2)c(=O)c1 [Example 203, 1-(4-{2-oxo-4-[2-(thiophen-3-yl)acetamido]-1,2-dihydropyridin-1-yl}butyl)-N-{[3-(trifluoromethoxy)phenyl]methyl}-1H-1,2,3-triazole-4-carboxamide] | < 100 nM | 100 to 500 nM |
| O=C1CCC(CC(=O)Nc2ccn(CCCCn3cc(C(=O)NCc4cccc(OC(F)(F)F)c4)nn3)c(=O)c2)CC1 [Example 204, 1-(4-{2-oxo-4-[2-(4-oxocyclohexyl)acetamido]-1,2-dihydropyridin-1-yl}butyl)-N-{[3-(trifluoromethoxy)phenyl]methyl}-1H-1,2,3-triazole-4-carboxamide] | < 100 nM | 500 to 5000 nM |
| CC(C)(C)OC(=O)N1CCC(CC(=O)Nc2ccn(CCCCn3cc(C(=O)NCc4cccc(OC(F)(F)F)c4)nn3)c(=O)c2)CC1 [Example 205, tert-butyl 4-{[(2-oxo-1-{4-[4-({[3-(trifluoromethoxy)phenyl]methyl}carbamoyl)-1H-1,2,3-triazol-1-yl]butyl}-1,2-dihydropyridin-4-yl)carbamoyl]methyl}piperidine-1-carboxylate] | < 100 nM | < 100 nM |
| O=C(CC1CCCCO1)Nc1ccn(CCCCn2cc(C(=O)NCc3cccc(OC(F)(F)F)c3)nn2)c(=O)c1 (centres unmarked) [Example 206, 1-(4-{4-[2-(oxan-2-yl)acetamido]-2-oxo-1,2-dihydropyridin-1-yl}butyl)-N-{[3-(trifluoromethoxy)phenyl]methyl}-1H-1,2,3-triazole-4-carboxamide] | < 100 nM | < 100 nM |

The remaining lines, values ahead:

| IC50 [1] | EC50 (A549 cells) | SMILES |
| --- | --- | --- |
| < 100 nM | 500 to 5000 nM | O=C(CC1CCCCC1)Nc1ccn(CCCCn2cc(C(=O)NCc3ccccn3)nn2)c(=O)c1 [Example 190, 1-{4-[4-(2-cyclohexylacetamido)-2-oxo-1,2-dihydropyridin-1-yl]butyl}-N-(pyridin-2-ylmethyl)-1H-1,2,3-triazole-4-carboxamide] |
| < 100 nM | 100 to 500 nM | O=C(CC1CCCCC1)Nc1ccn(CCCCn2cc(C(=O)NCc3cccnc3)nn2)c(=O)c1 [Example 191, 1-{4-[4-(2-cyclohexylacetamido)-2-oxo-1,2-dihydropyridin-1-yl]butyl}-N-(pyridin-3-ylmethyl)-1H-1,2,3-triazole-4-carboxamide] |
| < 100 nM | < 100 nM | O=C(CC1CCCCC1)Nc1ccn(CCCCn2cc(C(=O)NCc3cc(C(F)(F)F)ccn3)nn2)c(=O)c1 [Example 194, 1-{4-[4-(2-cyclohexylacetamido)-2-oxo-1,2-dihydropyridin-1-yl]butyl}-N-{[4-(trifluoromethyl)pyridin-2-yl]methyl}-1H-1,2,3-triazole-4-carboxamide] |
| < 100 nM | 500 to 5000 nM | Cc1ccc(CNC(=O)c2cn(CC(F)CCn3ccc(NC(=O)CC4CCCOC4)cc3=O)nn2)cn1 (centres unmarked) [Example 196, 1-(2-fluoro-4-{4-[2-(oxan-3-yl)acetamido]-2-oxo-1,2-dihydropyridin-1-yl}butyl)-N-[(6-methylpyridin-3-yl)methyl]-1H-1,2,3-triazole-4-carboxamide] |
| < 100 nM | 500 to 5000 nM | Cc1ccc(CNC(=O)c2cn(CC(F)CCn3ccc(NC(=O)CC4CCOCC4)cc3=O)nn2)cn1 (centres unmarked) [Example 197, 1-(2-fluoro-4-{4-[2-(oxan-4-yl)acetamido]-2-oxo-1,2-dihydropyridin-1-yl}butyl)-N-[(6-methylpyridin-3-yl)methyl]-1H-1,2,3-triazole-4-carboxamide] |
| < 100 nM | 100 to 500 nM | Cc1ccc(CNC(=O)c2cn(CC(F)CCn3ccc(NC(=O)CC4CCSCC4)cc3=O)nn2)cn1 (centres unmarked) [Example 198, 1-(2-fluoro-4-{2-oxo-4-[2-(thian-4-yl)acetamido]-1,2-dihydropyridin-1-yl}butyl)-N-[(6-methylpyridin-3-yl)methyl]-1H-1,2,3-triazole-4-carboxamide] |
| < 100 nM | < 100 nM | Cc1ccc(CNC(=O)c2cn(CC(F)CCn3ccc(NC(=O)CC4CCCC4)cc3=O)nn2)cn1 (centres unmarked) [Example 199, 1-{4-[4-(2-cyclopentylacetamido)-2-oxo-1,2-dihydropyridin-1-yl]-2-fluorobutyl}-N-[(6-methylpyridin-3-yl)methyl]-1H-1,2,3-triazole-4-carboxamide] |

— patent US20160002204A1 (Board of Regents, The University of Texas System, priority 2014, published 2016)
